Reference: patent US20260272895A1, “METHODS AND KITS FOR DELIVERY OF COMPOUNDS INTO CELLS” (Yale University, priority 2023, published 2026)

Target: T1, SLCO1A2 (Homo sapiens, UniProt P46721)
T1 sequence (P46721 1-670): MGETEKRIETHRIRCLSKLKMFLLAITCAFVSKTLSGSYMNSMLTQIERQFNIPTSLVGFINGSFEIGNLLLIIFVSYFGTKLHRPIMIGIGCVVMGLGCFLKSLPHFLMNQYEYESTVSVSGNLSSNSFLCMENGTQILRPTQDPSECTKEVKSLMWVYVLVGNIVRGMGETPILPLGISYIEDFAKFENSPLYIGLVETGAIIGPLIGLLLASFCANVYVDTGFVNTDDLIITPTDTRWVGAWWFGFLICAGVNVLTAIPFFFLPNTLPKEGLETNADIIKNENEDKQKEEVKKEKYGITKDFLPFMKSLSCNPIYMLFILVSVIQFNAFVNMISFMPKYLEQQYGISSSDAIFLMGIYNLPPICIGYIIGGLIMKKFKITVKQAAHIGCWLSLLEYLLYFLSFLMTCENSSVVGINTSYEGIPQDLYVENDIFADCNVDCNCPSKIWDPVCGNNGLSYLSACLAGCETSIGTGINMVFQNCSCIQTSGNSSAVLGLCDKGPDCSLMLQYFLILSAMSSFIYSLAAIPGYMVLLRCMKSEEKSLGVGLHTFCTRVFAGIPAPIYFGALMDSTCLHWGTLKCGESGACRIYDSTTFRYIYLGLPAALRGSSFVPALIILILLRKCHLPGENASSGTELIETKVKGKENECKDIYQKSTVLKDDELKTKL
Experiment: Uptake by cells ectopically expressing SLCO1A2 (in utero electroporation or AAV8) in live mice
Format: in vivo, mouse
Design: P2A:EGFP (AAV8 construct only; EGFP is separated at P2A) (C, cleaved yes); FLAG (in utero electroporation plasmid only); host or cells: cortical neurons of live mice (AAV8 subarachnoid infusion or in utero electroporation)
Details: topical cortical administration (50 μM where stated)
Method: IUE is performed at E14 or E15 as previously done. Briefly, timed pregnant mice are anaesthetized with ketamine/xylazine. The abdominal region is shaved, sterilized and a 3 cm midline incision is made in the skin and abdominal muscle. The uterine horns are exposed, and the lateral ventricle of each embryo is pressure injected (Picospritzer II, General Valve) with plasmid DNA (~[…] volume per embryo) at a concentration of […] followed by electroporation with tweezertrodes (50 V, 4-50 ms pulses with I s pulse interval. BTX Harvard Apparatus). The embryos are placed back in the mother womb, and the muscle and skin are sutured. Electroporated pups are aged to postnatal day 30. Imaging is performed through a craniotomy over the transfected hemisphere following dye labeling.
The Adeno-associated virus (AAV) for expression of SLCO1A2 was custom-made (VectorBuilders). Briefly, The AAV8 virus carrying the pAAV-CAG>hSLCO1A2:P2A:EGFP construct was produced by cloning the hSLCO1A2 gene variant downstream of the CAG promoter in the pAAV8 expression vector. A P2A sequence was inserted to link the hSLCO1A2 gene with the EGFP coding sequence. The constructed vector was transfected into HEK293 cells, and the virus produced was harvested and ultra-purified for a final titer >10^13 GC/mL. AAV virus were injected into the mouse subarachnoid space using a previously described method. Briefly, mice were anesthetized with ketamine-xylazine. A skull window, approximately 1 mm in diameter, was created using a high-speed drill at coordinates 6 mm anteroposterior and 3 mm mediolateral from bregma. Subsequently, a 30-gauge needle was carefully used to lift a small piece of thinned skull, exposing the underlying dura. The stock solutions of AAV were diluted in fresh sterile phosphate-buffered saline (PBS) solution (1:20, v/v) at room temperature, then kept on ice and adjusted to a titer of 10^12 GC/mL. The AAV solutions were loaded into a Tygon tube, connected to a polypropylene tip with an outer diameter of 70 μm, which was further attached to a programmable syringe pump with a Hamilton syringe. […]

For `O=S(=O)([O-])c1cc(S(=O)(=O)O)ccc1C1=c2cc3c4c(c2Oc2cc(Br)ccc21)CCC[N+]=4CCC3` [Compound 1, 2-(12-bromo-1,2,3,5,6,7-hexahydrochromeno[2,3-f]pyrido[3,2,1-ij]quinolin-4-ium-9-yl)-5-sulfobenzenesulfonate], the “uptake by neurons ectopically expressing SLCO1A2” value (“uptake” below) was “only those cells that express SLCO1A2 or SLCO1A4 (as evidenced by the GFP fluorescence (green)) take up compound 1”.
`COc1cc2c(c(OC)c1OC)-c1ccc(OC)c(=O)cc1C(NS(=O)(=O)c1ccc(-c3c4ccc(N(C)C)cc4[o+]c4cc(N(C)C)ccc34)c(S(=O)(=O)[O-])c1)CC2` (stereo not drawn) [Compound 47, 2-(3,6-bis(dimethylamino)xanthylium-9-yl)-5-(N-(1,2,3,10-tetramethoxy-9-oxo-5,6,7,9-tetrahydrobenzo[a]heptalen-7-yl)sulfamoyl)benzenesulfonate] was tested, and the “uptake” value (listed as Colchicine-eEDITS) was “robust uptake by cells expressing SLCO1A2” and the “uptake” value (listed as Colchicine-eEDiTS) was “marked uptake”.
